Patent publication US12637719B2, “Panel of ER regulated genes for use in monitoring endocrine therapy in breast cancer” (Sanofi, priority 2020, dated 2026)
Entries after “also recorded” stand apart in the source; their conditions may differ.

Assays:
[1] = system: ERα transcriptional activity in HCC1428-LTED cells; experiment: ER activity score (GSVA on 87-gene ER signature, RNA-seq) in HCC1428-LTED cells; type: cell-based; conditions: for ER activity score / ERα transcriptional activity (GSVA on ER signature): 300 nM (high) or 30 nM (low), 24 hours, absence of exogenous estrogen, FIG. 1B
Procedure: The term “ER activity score,” as used herein, refers to a score obtained by using a computational method such as GSVA (Hanzelmann et al., GSVA: gene set variation analysis for microarray and RNA-seq data, in BMC Bioinformatics, 2013; 14:7, incorporated herein by reference in its entirety for its description of calculating scores using the GSVA method) on a gene expression data set obtained from a biological sample. An E2-induced score and an E2-suppressed score are calculated individually. […] The ER activity score is computed as follows: ER Activity Score=ER-induced score−E2-suppressed score.
(§1) An RNA-seq library of 96 SERD RNA samples was prepared using a kit from NuGen Ovation® Universal RNA-Seq System Method (Illumina® Platforms) conforming to the manufacturer's protocol. The 50 bp rapid single-read flow cell was used to sequence the library on the Illumina HiSeq 2500 in the rapid mode. […] TPM was calculated as calculated measured as an expression unit and then quantile-normalized and log 2-transformed. […] ER-regulated genes were identified using two comparisons. First, genes were identified that were modulated by one or more SERM or SERD compounds in Table 1 and modulated in the opposite direction by estradiol ([log 2 FC]>2 and FDR<0.05 vs. DMSO control). To identify genes that are differentially expressed between SERD compound treatment and dimethyl sulfoxide (DMSO; control) treatment groups, a two-factor (treatment and dose) analysis of variance (ANOVA) model was used at respective dose and time points. The treatment factor was fixed, with seven levels: six SERD compounds and the DMSO control. The dose factor was also fixed, with two levels: low and high. All samples were treated at 24h. Post hoc contrast analyses were performed at each dose and time level, between each SERD compound treatment and the DMSO control. […] This analysis was performed using Array Studio (Qiagen). The panel of 1022 genes identified as differentially expressed in at least one compound-versus-DMSO comparison were used for hierarchical clustering of compound treatment data normalized to DMSO control at respective dose and time points. Complete-linkage clustering was performed based on Pearson correlation coefficients. Expression profile similarity between compounds was assessed by Pearson correlation on the differentially expressed genes.
(§2) To evaluate the ER modulation by amcenestrant and other SERDs, we treated HCC1428-LTED (long term estrogen deprived) breast cancer cell lines with SERD compounds at either 300 nM (high) or 30 nM (low) in 24 hours. To unmask the ER-intrinsic activity, we then evaluated gene expression after compound treatment in HCC1428-LTED cells, which is a cell line that is hormone-deprived. Changes in global mRNA expression were assessed 24 hours post treatment.
(§3) To assess the relative ER modulating activity of the compounds, a panel of ER regulated genes (87 genes, Table 3) was developed by transcriptional profiling of multiple cell lines to identify genes that were modulated by estradiol and then blocked by SERM and SERD. This panel of ER regulated genes can be used to measure ER modulation by SERMs and SERDs. An ER Activity Score was then assessed using gene set variation analysis (GSVA) on the ER Signature (BMC Bioinformatics. 2013; 14:7).

HCC1428-LTED cells = experiment: Global mRNA expression profile similarity between SERDs (1022 differentially expressed genes, Pearson correlation); type: cell-based; conditions: 24 hours post treatment, 1022 transcripts, FIG. 1A, FIG. 3
Procedure: as §1, with “The panel of 1022 genes identified as differentially expressed in at least one compound-versus-DMSO comparison were used for hierarchical clustering of compound treatment data normalized to DMSO control at respective dose and time points. Complete-linkage clustering was performed based on Pearson correlation coefficients.” left out
as §2

[2] = system: ERα target genes CXCL12 and BCAS1; experiment: RT-qPCR of ERα target genes CXCL12 and Bcas1 in HCC1428-LTED cells; type: cell-based; conditions: for expression of CXCL12 by RT-qPCR: FIG. 1C; for expression of Bcas1 by RT-qPCR: FIG. 1D
Procedure: RNA was extracted using the RNeasy kit (Qiagen) per the manufacturers instruction, quantified by NanoDrop 8000 (ThermoScientific) and reverse-transcribed with cDNA archive kit (Applied Biosystems). Taqman gene expression assays (Applied Biosystems) were used to quantify PGR (Hs00172183_m1), Bcas 1 (Hs00952822_m1), CXCL12 (Hs03676656_mH), BLNK1(Hs00929914_m1), IL20 (Hs00218888_m1) and the house-keeping genes PGK (Hs00391480_m1) and GAPDH (Hs99999905 ml) The relative quantities were determined using ΔΔ threshold cycle (ΔΔCt), according to the manufacturer's instructions (Applied Biosystems).
as §2
Findings were confirmed by measuring the expression of two well-validated ER target genes, CXCL12 and BCAS1, by RT-qPCR. Gene expression analysis provided further confirmation of the differential response of these molecules on well-validated ERα target genes (Elife. 2016; 5, Endocr Relat Cancer. 2015; 22(5):713-24).

[3] = system: ERα signaling in HCI013 PDX tumor model; experiment: ER activity score (GSVA, 87-gene signature) in HCI013 PDX tumor model; type: in vivo, human; conditions: 8 h after last administration; SAR439859 100 mg/kg QD, GDC0810 100 mg/kg QD; FIG. 4B
Procedure: FIGS. 4A-B. Evaluation of target gene modulation in ERα ligands in an endocrine therapy-resistant tumor model. […] Data represent mean and standard deviation for 3 replicates for CXCL12 gene expression. An ER Signature of 87 genes was that were modulated by estradiol and then blocked by SERM and SERD compounds was used to calculate the ER Activity Score and was assessed using gene set variation analysis (GSVA). Data represents the mean and deviation from the mean for each of the described treatments.
as §3
The ERα transcriptional activity was analyzed in the HCI013 model using the panel of genes corresponding to the ER gene signature derived from the in vitro cell line analysis as previously described.

[4] = system: ERα target genes PGR and CXCL12 in HCI013 tumors; experiment: RT-qPCR of PGR and CXCL12 in HCI013 PDX tumors; type: in vivo, human
Procedure: FIG. 2. […] For FIG. 2 *P<0.05; denotes significance compared to vehicle treated group at end of study using unpaired t test. FIGS. 4A-B. Evaluation of target gene modulation in ERα ligands in an endocrine therapy-resistant tumor model. […] Data represent mean and standard deviation for 3 replicates for CXCL12 gene expression. An ER Signature of 87 genes was that were modulated by estradiol and then blocked by SERM and SERD compounds was used to calculate the ER Activity Score and was assessed using gene set variation analysis (GSVA). Data represents the mean and deviation from the mean for each of the described treatments. RNA was extracted using the RNeasy kit (Qiagen) per the manufacturers instruction, quantified by NanoDrop 8000 (ThermoScientific) and reverse-transcribed with cDNA archive kit (Applied Biosystems). Taqman gene expression assays (Applied Biosystems) were used to quantify PGR (Hs00172183_m1), Bcas 1 (Hs00952822_m1), CXCL12 (Hs03676656_mH), BLNK1(Hs00929914_m1), IL20 (Hs00218888_m1) and the house-keeping genes PGK (Hs00391480_m1) and GAPDH (Hs99999905 ml) The relative quantities were determined using ΔΔ threshold cycle (ΔΔCt), according to the manufacturer's instructions (Applied Biosystems).

Ki67 = experiment: IHC Ki67 protein expression (percent positive tumor cells) in paired tumor biopsies, Phase 1/2 study; type: in vivo, human; conditions: screening to Cycle 2, Day 28; 400 mg PO QD; n=7; range −30% to +30%; FIG. 6C
Procedure: Staining was evaluated in tumor cells only. For ER and PgR expression, H-scores were calculated.

ER pathway = experiment: ER activation score by GSVA (RNA-seq) in paired tumor biopsies, Phase 1/2 study; type: in vivo, human

## CC/C(=C(/c1ccc(/C=C/C(=O)O)cc1)c1ccc2[nH]ncc2c1)c1ccc(F)cc1Cl [GDC-0810]
[1]
  ER activity score / ERα transcriptional activity (GSVA on ER signature): only partially reduced; also recorded: only partially inhibited
HCC1428-LTED cells
  correlation of induced expression profile to that of fulvestrant: only weakly correlated
[2]
  expression of CXCL12 by RT-qPCR: failed to elicit any significant change
  expression of Bcas1 by RT-qPCR: failed to elicit any significant change
[3]
  ERα transcriptional activity (ER activity score) in HCI013 model: suppressive activity

## O=C(O)c1ccc2c(c1)CCCC(c1ccc(Cl)cc1Cl)=C2c1ccc(O[C@H]2CCN(CCCF)C2)cc1 [SAR439859, 6-(2,4-dichlorophenyl)-5-[4-[(3S)-1-(3-fluoropropyl)pyrrolidin-3-yl]oxyphenyl]-8,9-dihydro-7H-benzo[7]annulene-2-carboxylic acid]
[1]
  ER activity score / ERα transcriptional activity (GSVA on ER signature): strongly reduced; also recorded: deep inhibition
  modulation of ERα intrinsic activity in the absence of E2 (inverse agonist activity): profound modulation
HCC1428-LTED cells
  correlation of induced expression profile to that of fulvestrant: closely correlated
[2]
  expression of CXCL12 by RT-qPCR: inhibited expression
  expression of Bcas1 by RT-qPCR: induced expression
[4]; 8 h after last administration, SAR439859 100 mg/kg QD compared to fulvestrant 200 mg/kg Q2W or GDC0810 100 mg/kg QD, FIG. 4A
  CXCL12 gene expression in HCI013 tumors (RT-qPCR): stronger inhibition
[4]; 8 hours after last administration, SAR439859 100 mg/kg compared to fulvestrant 200 mg/kg or GDC0810 100 mg/kg, FIG. 2
  PGR gene expression in HCI013 tumors (RT-qPCR): stronger inhibition
[3]
  ERα transcriptional activity (ER activity score) in HCI013 model: more marked ERα suppression
Ki67
  median change from screening in percentage of Ki67 positive cells: −8%
ER pathway; all patients with paired biopsies, n=5, range −1.1 to +0.4, FIG. 6D
  ER activation score by GSVA, median change from screening: −0.4
ER pathway; patients with clinical benefit, n=4, range −1.1 to 0
  ER activation score by GSVA, median change from screening, patients who showed clinical benefit: −0.6
ER pathway; the one patient with no clinical benefit
  ER activation score by GSVA, change from screening, patient with no clinical benefit: +0.4

## C[C@@H]1Cc2c([nH]c3ccccc23)[C@@H](c2c(F)cc(/C=C/C(=O)O)cc2F)N1CC(C)(C)F [AZD9496]
[1]
  ER activity score / ERα transcriptional activity (GSVA on ER signature): only partially reduced; also recorded: only partially inhibited
HCC1428-LTED cells
  correlation of induced expression profile to that of fulvestrant: only weakly correlated
[2]
  expression of CXCL12 by RT-qPCR: failed to elicit any significant change
  expression of Bcas1 by RT-qPCR: failed to elicit any significant change

## C[C@]12CC[C@@H]3c4ccc(O)cc4C[C@@H](CCCCCCCCC[S+]([O-])CCCC(F)(F)C(F)(F)F)[C@H]3[C@@H]1CC[C@@H]2O (stereo partly drawn) [Fulvestrant]
[1]
  ER activity score / ERα transcriptional activity (GSVA on ER signature): deep inhibition
  modulation of ERα intrinsic activity in the absence of E2 (inverse agonist activity): profound modulation
[1]; listed as fulvestrant
  ER activity score / ERα transcriptional activity (GSVA on ER signature): strongly reduced
